Assay results as given in EP1278852B1, “ZSIG33-LIKE PEPTIDES” (ZymoGenetics, Inc., priority 2000, dated 2001).
No end group written: not given here.

system: ob/ob mice; experiment: In vivo glucose absorption (oral glucose challenge); settings: given orally at 100 µg, 30 minutes prior to an oral glucose challenge; serum glucose
Description: Eight female ob/ob mice, approximately 6 weeks old (Jackson Labs, Bar Harbor, ME) are adapted to a 4 hour daily feeding schedule for two weeks. After two weeks on the feeding schedule, the mice are give 100 µg of a peptide corresponding to the amino acid sequence as shown in SEQ ID NOs:4-6, 9-11, 14-17, 20-22, or 25-26 in 100 µl sterile 0.1% BSA by oral gavage, immediately after their eating period (post-prandially). Thirty minutes later, the mice are challenged orally with a 0.5 ml volume of 25% glucose. Retroorbital bleeds are done to determine serum glucose levels. Blood is drawn prior to peptide dosing, prior to oral glucose challenge, and at 1, 2, 4, and 20 hours following the glucose challenge.

Row | Substance | post-prandial glucose absorption
1 | zsig33-delta: peptide corresponding to residues 1 to 10 of SEQ ID NO:14; listing has 10-residue SEQ ID NO:20 (FNAPFDVGIK) | enhanced post-prandial glucose absorption
2 | zsig33-epsilon: peptide corresponding to residues 1 to 13 of SEQ ID NO:17; listing has 13-residue amidated SEQ ID NO:26 (LSGVQYQQHSQAL-NH2) | enhanced post-prandial glucose absorption
3 | zsig33-gamma: peptide corresponding to residues 1 to 17 of SEQ ID NO:10; listing has 17-residue SEQ ID NO:14 (FLQDILWEEAKEAPADK) | enhanced post-prandial glucose absorption
